This is an account of results in ChEMBL document CHEMBL4190314, “Quinoline hybrids and their antiplasmodial and antimalarial activities” (Eur J Med Chem, 2017).

Holding throughout (format): functional, organism-based
The test system of assay [1] is Plasmodium falciparum. Put plainly: Antimalarial activity against synchronous culture of Plasmodium falciparum W2 ring stage infected in human erythrocytes after 48 hrs by flow cytometry. The note with it: W2, 48 h.
The subject of assay [2] is Plasmodium falciparum. Put plainly: Antimalarial activity against Plasmodium falciparum 3D7 infected in human erythrocytes after 72 hrs by SYBR Green-1 staining based fluorescence assay. The note with it: 3D7, 72 h.
Assay [3] deals with Plasmodium falciparum. Put plainly: Antimalarial activity against chloroquine-sensitive Plasmodium falciparum 3D7 infected in human erythrocytes after 72 hrs by SYBR Green-1 staining based fluorescence assay. As to conditions: 3D7, 72 h.
The test system of assay [4] is Plasmodium falciparum. Nature of the assay: Antimalarial activity against chloroquine-sensitive Plasmodium falciparum 3D7 infected in human type A+ erythrocytes after 48 hrs by [3H]-hypoxanthine incorporation assay.
Assay [5] deals with Plasmodium falciparum. Nature of the assay: Antimalarial activity against chloroquine-resistant Plasmodium falciparum K1 infected in human type A+ erythrocytes after 48 hrs by [3H]-hypoxanthine incorporation assay.
Assay [6] relates to Plasmodium falciparum. Nature of the assay: Antimalarial activity against chloroquine-resistant Plasmodium falciparum W2 infected in human type A+ erythrocytes after 24 hrs by [3H]-hypoxanthine incorporation assay.

SMILES strings stand for the structures. pIC50: −log10 of the molar value. A value given as a limit tells only on which side of the number the result lay.

What is called pIC50 is the negative decadic logarithm of the IC50, by convention in mol/L. Lower therefore signals a high IC50. In the case of `O=C(/C=C/c1ccccc1)NCCCCNc1ccnc2cc(Cl)ccc12`, in assay [1], the pIC50 is 7.23 to 7.96.

In assay [1], `Cc1ccc(/C=C/C(=O)NCCCCNc2ccnc3cc(Cl)ccc23)cc1` gave a pIC50 of 7.23 to 7.96.

Compound `CC(C)c1ccc(/C=C/C(=O)NCCCCNc2ccnc3cc(Cl)ccc23)cc1` gave a pIC50 in assay [1] of 7.23 to 7.96.

In assay [1], `COc1ccc(/C=C/C(=O)NCCCCNc2ccnc3cc(Cl)ccc23)cc1` gave a pIC50 of 7.23 to 7.96.

In the case of `Nc1ccc(/C=C/C(=O)NCCCCNc2ccnc3cc(Cl)ccc23)cc1`, in assay [1], the pIC50 is 7.23 to 7.96.

`O=C(/C=C/c1cccc(F)c1)NCCCCNc1ccnc2cc(Cl)ccc12`: the pIC50 in assay [1] is 7.23 to 7.96.

In assay [1], `O=C(/C=C/c1ccc(F)cc1)NCCCCNc1ccnc2cc(Cl)ccc12` gave a pIC50 of 7.23 to 7.96.

In assay [1], `O=C(/C=C/c1ccc(Cl)cc1)NCCCCNc1ccnc2cc(Cl)ccc12` showed a pIC50 of 7.23 to 7.96.

For the compound `O=C(/C=C/c1ccc(Br)cc1)NCCCCNc1ccnc2cc(Cl)ccc12`, the pIC50 in assay [1] was 7.23 to 7.96.

Regarding `O=C(/C=C/c1ccccc1[N+](=O)[O-])NCCCCNc1ccnc2cc(Cl)ccc12`, the pIC50 in assay [1] was 7.23 to 7.96.

As for `O=C(/C=C/c1cccc([N+](=O)[O-])c1)NCCCCNc1ccnc2cc(Cl)ccc12`, the pIC50 in assay [1] was 7.23 to 7.96.

Turning to `O=C(/C=C/c1ccc([N+](=O)[O-])cc1)NCCCCNc1ccnc2cc(Cl)ccc12`, the pIC50 in assay [1] is 7.23 to 7.96.

Take `CN(C)c1ccc(/C=C/C(=O)NCCCCNc2ccnc3cc(Cl)ccc23)cc1`: the pIC50 in assay [1] is 7.23 to 7.96.

In assay [1], `COc1ccc(/C=C/C(=O)NCCCCNc2ccnc3cc(Cl)ccc23)cc1OC` showed a pIC50 of 7.23 to 7.96.

In the case of `C=C[C@H]1CN2CC[C@H]1C[C@H]2[C@H](OC(=O)[C@H](CCCCNC(=O)OCc1ccccc1)NC(=O)OCc1ccccc1)c1ccnc2ccc(OC)cc12`, the pIC50 in assay [2] is > 7.00.

Regarding `C=C[C@H]1CN2CC[C@H]1C[C@H]2[C@H](OC(=O)CNC(=O)c1cn(C2CC2)c2cc(N3CCN(CC)CC3)c(F)cc2c1=O)c1ccnc2ccc(OC)cc12`, the pIC50 in assay [3] is 6.68 to 7.92.

As for `C=C[C@H]1CN2CC[C@H]1C[C@H]2[C@H](OC(=O)[C@H](Cc1cn(S(=O)(=O)c2ccc(C)cc2)cn1)NC(=O)OC(C)(C)C)c1ccnc2ccc(OC)cc12`, the pIC50 in assay [2] is > 7.00.

For `O=C1OC(CN2CCN(c3ccccc3F)CC2)CN1CCCNc1ccnc2cc(Cl)ccc12` (configuration not stated), the pIC50 in assay [4] and in assay [5] was 6.37 to 7.21 each time.

For the compound `O=C1OC(CN2CCN(c3ccc(F)cc3)CC2)CN1CCNc1ccnc2cc(Cl)ccc12` (configuration not stated), the pIC50 in assay [4] and in assay [5] was 6.37 to 7.21 in each case.

Regarding `C=C[C@H]1CN2CC[C@H]1C[C@H]2[C@H](OC(=O)[C@H](Cc1ccccc1)NC(=O)c1cn2c3c(c(N4CCN(C)CC4)c(F)cc3c1=O)OC[C@@H]2C)c1ccnc2ccc(OC)cc12`, the pIC50 in assay [3] is 6.68 to 7.92.

`C=C[C@H]1CN2CC[C@H]1C[C@H]2[C@H](OC(=O)[C@H](C)NC(=O)c1cn(CC)c2nc(C)ccc2c1=O)c1ccnc2ccc(OC)cc12`: the pIC50 in assay [3] was 6.68 to 7.92.

As for `C=C[C@H]1CN2CC[C@H]1C[C@H]2[C@H](OC(=O)[C@H](C)NC(=O)OC(C)(C)C)c1ccnc2ccc(OC)cc12`, the pIC50 in assay [2] was > 7.00.

As to `C=C[C@H]1CN2CC[C@H]1C[C@H]2[C@H](OC(=O)CNC(=O)[C@@H](NC(=O)OCc1ccccc1)[C@@H](C)CC)c1ccnc2ccc(OC)cc12`, the pIC50 in assay [2] is > 7.00.

For the compound `O=C1OC(CN2CCN(c3ccccc3F)CC2)CN1CCCCCCNc1ccnc2cc(Cl)ccc12` (configuration not stated), the pIC50 in assay [4] and in assay [5] was 6.37 to 7.21 throughout.

In turn, `C=C[C@H]1CN2CC[C@H]1C[C@H]2[C@H](OC(=O)[C@H](CC(C)C)NC(=O)c1cn(CC)c2nc(C)ccc2c1=O)c1ccnc2ccc(OC)cc12` gave a pIC50 in assay [3] of 6.68 to 7.92.

With `C=C[C@H]1CN2CC[C@H]1C[C@H]2[C@H](OC(=O)[C@@H](NC(=O)c1cn(C2CC2)c2cc(N3CCN(CC)CC3)c(F)cc2c1=O)[C@@H](C)CC)c1ccnc2ccc(OC)cc12`, the pIC50 in assay [3] is 6.68 to 7.92.

In the case of `C=C[C@H]1CN2CC[C@H]1C[C@H]2[C@H](OC(=O)[C@H](C)NC(=O)c1cn2c3c(c(N4CCN(C)CC4)c(F)cc3c1=O)OC[C@@H]2C)c1ccnc2ccc(OC)cc12`, in assay [3], the pIC50 is 7.92.

`C=C[C@H]1CN2CC[C@H]1C[C@H]2[C@H](OC(=O)CNC(=O)c1cn2c3c(c(N4CCN(C)CC4)c(F)cc3c1=O)OC[C@@H]2C)c1ccnc2ccc(OC)cc12` showed a pIC50 in assay [3] of 6.68 to 7.92.

Consider `COc1ccccc1N1CCN(CC2CN(CCNc3ccnc4cc(Cl)ccc34)C(=O)O2)CC1` (configuration not stated), for which the pIC50 in assay [4] and in assay [5] was 6.37 to 7.21 in each case.

With `C=C[C@H]1CN2CC[C@H]1C[C@H]2[C@H](OC(=O)[C@@H](CSCc1ccccc1)NC(=O)OCc1ccccc1)c1ccnc2ccc(OC)cc12`, the pIC50 in assay [2] is > 7.00.

Turning to `C=C[C@H]1CN2CC[C@H]1C[C@H]2[C@H](OC(=O)CNC(=O)OC(C)(C)C)c1ccnc2ccc(OC)cc12`, the pIC50 in assay [2] was > 7.00.

Regarding `C=C[C@H]1CN2CC[C@H]1C[C@H]2[C@H](OC(=O)[C@H](C)NC(=O)[C@H](Cc1ccccc1)NC(=O)CNC(=O)OCc1ccccc1)c1ccnc2ccc(OC)cc12`, the pIC50 in assay [2] was > 7.00.

With `C=C[C@H]1CN2CC[C@H]1C[C@H]2[C@H](OC(=O)CNC(=O)c1cn(CC)c2nc(C)ccc2c1=O)c1ccnc2ccc(OC)cc12`, the pIC50 in assay [3] was 6.68 to 7.92.

With `C=C[C@H]1CN2CC[C@H]1C[C@H]2[C@H](OC(=O)[C@H](COCc1ccccc1)NC(=O)OC(C)(C)C)c1ccnc2ccc(OC)cc12`, the pIC50 in assay [2] was > 7.00.

On to `O=C1OC(CN2CCN(c3ccccc3F)CC2)CN1CCCCNc1ccnc2cc(Cl)ccc12` (configuration not stated), for which the pIC50 in assay [4] and in assay [5] was 6.37 to 7.21 each time.

`O=C1OC(CN2CCN(c3ccccc3F)CC2)CN1CCNc1ccnc2cc(Cl)ccc12` (configuration not stated): the pIC50 in assay [4] and in assay [5] was 6.37 to 7.21 each time.

Turning to `C=C[C@H]1CN2CC[C@H]1C[C@H]2[C@H](OC(=O)[C@H](Cc1ccccc1)NC(=O)OC(C)(C)C)c1ccnc2ccc(OC)cc12`, in assay [2], the pIC50 was > 7.00.

For `C=C[C@H]1CN2CC[C@H]1C[C@H]2[C@H](OC(=O)[C@H](CCC(=O)OCc1ccccc1)NC(=O)OC(C)(C)C)c1ccnc2ccc(OC)cc12`, the pIC50 in assay [2] is > 7.00.

Regarding `C=C[C@H]1CN2CC[C@H]1C[C@H]2[C@H](OC(=O)[C@H](CC(=O)OCc1ccccc1)NC(=O)OCc1ccccc1)c1ccnc2ccc(OC)cc12`, in assay [2], the pIC50 was 7.77.

In the case of `O=C1OC(CN2CCN(c3ccccc3Cl)CC2)CN1CCNc1ccnc2cc(Cl)ccc12` (configuration not stated), the pIC50 in assay [4] and in assay [5] was 6.37 to 7.21 throughout.

Regarding `O=C1OC(CN2CCN(c3ccccc3)CC2)CN1CCNc1ccnc2cc(Cl)ccc12` (configuration not stated), the pIC50 in assay [4] and in assay [5] was 6.37 to 7.21 each time.

With `C[C@@H]1CC[C@H]2[C@@H](C)C(=O)O[C@@H]3O[C@@]4(C)CC[C@@H]1[C@]32OO4` [ARTEMISININ], the pIC50 in assay [6] was 7.72.

As for `C[C@H]1COc2c(N3CCN(C)CC3)c(F)cc3c(=O)c(C(=O)O)cn1c23` [LEVOFLOXACIN], in assay [3], the pIC50 was < 4.70.

`C=C[C@H]1CN2CC[C@H]1C[C@H]2[C@H](O)c1ccnc2ccc(OC)cc12` [QUININE] had a pIC50 in assay [2] of 7.74.
